Measured values reported in PubChem BioAssay (NCI).
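Interpolation was linear, between the two tested concentrations surrounding the appropriate level; five concentrations were tested over 48 hours in 96-well plates. The concentration for full growth arrest is given as TGI.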

Experiments:
Experiment in all cases: growth of human tumour cells (NCI), 48 h
[1] = test system: MDA-N
[2] = test system: OVCAR-3 ovarian
[3] = test system: A549 NSCLC
[4] = test system: CAKI-1 renal
[5] = test system: RXF 393 renal
[6] = test system: SK-MEL-5 melanoma
[7] = test system: NCI/ADR-RES ovarian
[8] = test system: NCI-H522 lung
[9] = test system: OVCAR-4 ovarian
[10] = test system: RPMI-8226 leukemia
[11] = test system: SK-MEL-2 melanoma
[12] = test system: K-562 leukemia
[13] = test system: TK-10 renal
[14] = test system: NCI-H226 lung
[15] = test system: SK-OV-3 ovarian
[16] = test system: MDA-MB-435
[17] = test system: MDA-MB-231 breast
[18] = test system: UACC-62 melanoma
[19] = test system: DU-145 prostate
[20] = test system: HT29 colon
[21] = test system: SF-268 CNS
[22] = test system: CCRF-CEM leukemia
[23] = test system: SN12C renal
[24] = test system: SNB-75 CNS
[25] = test system: U251 CNS
[26] = test system: COLO 205 colon
[27] = test system: HS 578T breast
[28] = test system: M14 melanoma
[29] = test system: OVCAR-8 ovarian
[30] = test system: HOP-92 NSCLC
[31] = test system: SF-295 CNS
[32] = test system: ACHN renal
[33] = test system: BT-549 breast
[34] = test system: SF-539 CNS
[35] = test system: MCF7 breast
[36] = test system: SK-MEL-28 melanoma
[37] = test system: HCT-15 colon
[38] = test system: NCI-H23 lung
[39] = test system: SNB-19 CNS
[40] = test system: EKVX NSCLC
[41] = test system: HCC-2998 colon
[42] = test system: NCI-H460 lung
[43] = test system: IGROV1 ovarian
[44] = test system: T-47D breast
[45] = test system: HOP-62 NSCLC
[46] = test system: A498 renal
[47] = test system: MOLT-4 leukemia
[48] = test system: HL-60(TB) leukemia
[49] = test system: LOX IMVI melanoma
[50] = test system: PC-3 prostate
[51] = test system: SW-620 colon
[52] = test system: MALME-3M melanoma
[53] = test system: UO-31 renal
[54] = test system: UACC-257 melanoma
[55] = test system: KM12 colon
[56] = test system: OVCAR-5 ovarian
[57] = test system: SR leukemia
[58] = test system: HCT-116 colon
[59] = test system: 786-0 renal

CC(=O)Oc1cccc2c(/C=N/NC(N)=S)ncc(C)c12
TGI [1]: 21 µM | TGI [2]: 32.3 µM | TGI [3]: 25.6 µM | TGI [4]: 15.6 µM | TGI [5]: 23.7 µM | TGI [6]: 16.4 µM | TGI [7]: 9.47 µM | TGI [8]: 32.5 µM | TGI [9]: 38.6 µM | TGI [10]: 24.5 µM | TGI [11]: 25.3 µM | TGI [12]: > 100 µM | TGI [13]: 22 µM | TGI [14]: 12.8 µM | TGI [15]: 17.1 µM | TGI [16]: > 45.9 µM | TGI [17]: 25.8 µM | TGI [18]: 12.3 µM | TGI [19]: 17.8 µM | TGI [20]: 21.8 µM | TGI [21]: 17.8 µM | TGI [22]: > 100 µM | TGI [23]: 17.1 µM | TGI [24]: > 55.6 µM | TGI [25]: > 42.6 µM | TGI [26]: > 41 µM | TGI [27]: > 73 µM | TGI [28]: 3.18 µM | TGI [29]: > 34.9 µM | TGI [30]: 32.9 µM | TGI [31]: 14.4 µM | TGI [32]: 2.7 µM | TGI [33]: 12.3 µM | TGI [34]: 1.98 µM | TGI [35]: 3.32 µM | TGI [36]: > 48.4 µM | TGI [37]: 24.1 µM | TGI [38]: 13.4 µM | TGI [39]: 16.3 µM | TGI [40]: 39.7 µM | TGI [41]: 18.9 µM | TGI [42]: 7.81 µM | TGI [43]: 20.9 µM | TGI [44]: 31.3 µM | TGI [45]: 14.6 µM | TGI [46]: 29.2 µM | TGI [47]: > 62.8 µM | TGI [48]: > 100 µM | TGI [49]: 8.98 µM | TGI [50]: 33.6 µM | TGI [51]: > 49.7 µM | TGI [52]: 42.7 µM | TGI [53]: 4.43 µM | TGI [54]: > 41.2 µM | TGI [55]: 15.5 µM | TGI [56]: 22 µM | TGI [57]: > 65.9 µM | TGI [58]: 32.6 µM

Oc1[nH]c2ccccc2c1N=Nc1ccccc1Cl
TGI [1]: > 100 µM | TGI [2]: > 93.8 µM | TGI [3]: > 100 µM | TGI [4]: 61.2 µM | TGI [59]: 31.1 µM | TGI [5]: > 85.2 µM | TGI [6]: > 100 µM | TGI [7]: > 100 µM | TGI [8]: > 100 µM | TGI [9]: 14.6 µM | TGI [10]: > 100 µM | TGI [11]: > 100 µM | TGI [12]: > 100 µM | TGI [13]: 32.8 µM | TGI [14]: > 100 µM | TGI [15]: 64.5 µM | TGI [16]: > 100 µM | TGI [17]: 41.6 µM | TGI [18]: > 100 µM | TGI [19]: > 100 µM | TGI [20]: > 100 µM | TGI [21]: > 100 µM | TGI [22]: > 100 µM | TGI [23]: 97.7 µM | TGI [24]: > 79.6 µM | TGI [25]: 47.4 µM | TGI [26]: > 100 µM | TGI [27]: > 100 µM | TGI [28]: > 100 µM | TGI [29]: > 64.7 µM | TGI [31]: > 100 µM | TGI [32]: 15.2 µM | TGI [33]: > 100 µM | TGI [34]: > 100 µM | TGI [35]: > 100 µM | TGI [36]: > 100 µM | TGI [37]: > 100 µM | TGI [38]: > 100 µM | TGI [39]: > 83.6 µM | TGI [40]: > 100 µM | TGI [41]: > 100 µM | TGI [42]: > 100 µM | TGI [43]: > 100 µM | TGI [44]: > 100 µM | TGI [45]: 40.6 µM | TGI [46]: > 79.9 µM | TGI [47]: > 100 µM | TGI [48]: > 100 µM | TGI [49]: > 100 µM | TGI [50]: > 100 µM | TGI [51]: > 100 µM | TGI [52]: > 100 µM | TGI [53]: > 100 µM | TGI [54]: > 100 µM | TGI [55]: > 100 µM | TGI [56]: > 100 µM | TGI [57]: 34.3 µM | TGI [58]: > 100 µM
